Columns and labels:
Type in all cases: cell-based
[1] = tested on: porcine primary RPE cells; test: POS-induced pseudopod/contractile cup formation, pMLC and POS centring at 30 min in primary porcine RPE cells
Excerpt: Fixation and processing cells and mouse tissue sections was as previously described in Zihni, C. et al (2017). The following antibodies were used: RPE65 mouse monoclonal (Millipore) 1/300 for immuno-fluorescence; p-MLC S19, mouse monoclonal (Cell Signaling Technology) immunofluorescence 1/100 and immunoblotting 1/1000; Dbl(3), rabbit polyclonal (Santa Cruz Biotechnology) immunofluorescence 1/200; MRCKβ, rabbit polyclonal (Santa Cruz Biotechnology) immunofluorescence 1/200 and immunoblotting 1/500; anti-Cdc42-GTP mouse monoclonal (NewEast Biosciences) immunofluorescence 1/50; N-WASP, rabbit polyclonal (Santa Cruz Biotechnology) immunofluorescence and immunoblotting 1/1000; MerTK rabbit monoclonal (Abcam 52968) immunofluorescence 1/100; Integrin αVβ5, mouse monoclonal (Clone P1F6) (Abcam 24694) immunofluorescence 1/100; pFAK Y397, rabbit polyclonal (Invitrogen) immunofluorescence 1/100; pSrc Y416, rabbit polyclonal (Cell Signaling Technology) immunofluorescence 1/100; Phalloidin-Atto 647 reagent was obtained from Sigma and diluted 1/1000. Affinity-purified and cross-adsorbed Alexa488-, Cy3- and Cy5-labelled donkey anti-mouse, rabbit, or goat secondary antibodies were from Jackson ImmunoResearch Laboratories (1/300 diluted from 50% glycerol stocks). Affinity-purified HRP-conjugated goat anti mouse and rabbit, and donkey anti goat secondary antibodies 1/5000 were also from Jackson ImmunoResearch Laboratories (1/5000 diluted from 50% glycerol stocks). For immunofluorescence analysis cells and tissues were mounted using Prolong Gold antifade reagent (Life technologies) and imaging was performed using Zeiss 700 and 710 confocal microscopes and a 64× oil lens/NA1.4. Images were processed using Zeiss Zen 2009 and Adobe Photoshop CS5 and 10 software. Co-immunoprecipitation and immunoblotting were carried out using methods previously described and were repeated at least three times.

Primary porcine RPE = test: POS/Gas-6 stimulated pseudopod assembly in serum-free primary porcine RPE; conditions: serum-free medium 4 h, 30 min stimulation with POS-FITC, with Gas-6
Method: Primary porcine RPE was cultured in serum-free medium, to eliminate effects of MerTK ligands, for 4 h followed by treatment with either N-WASP or MRCK inhibitor and a 30 min stimulation with POS-FITC in the absence or presence of Gas-6, which links MerTK to POS.

[2] = tested on: porcine primary RPE cells; test: POS phagocytosis (internalization) in primary porcine RPE cells; parameters: ability of RPE cells to internalize POS (confocal z-sections): dose or concentration left out as unconfirmed
Excerpt: Wilcoxon tests also were used where indicated.
The inventors next asked whether MRCKβ is directly involved in POS internalization using porcine primary RPE cells. […] MRCK was not required for POS to attach to the RPE, indicating integrin αVβ5-POS binding was not affected (FIGS. 2b and 2f). POS binding stimulates the formation of extended pseudopods that retract with internalization of POS. […] Thus, MRCKβ controls POS-induced membrane remodelling during phagocytic cup formation and particle internalization.

Molecule: CN(C)C[C@H](O)Cn1c2ccc(Br)cc2c2cc(Br)ccc21 (racemic) [Wiskostatin]
- pMLC activity/staining at pseudopods/cups ([1]; POS for 30 minutes): reduced
- less F-actin in pseudopods when compared to control cells ([1]; Wiskostatin used at 5 μM): approx. 50%
- number of cells forming normal pseudopods ([1]; Wiskostatin used at 5 μM): drastic reduction

Molecule: Cc1ccc2c(c1)C(=O)C1(O)CCN(c3ccccc3)C1=N2 (stereo not shown) [blebbistatin, Blebbistatin]
- pseudopod/cup organization ([1]; Blebbistatin used at 10 μM): disorganised pseudopods
- POS centring at pseudopods/cups ([1]; POS for 30 minutes): loss of efficient POS centring

Molecule: O=C(Nc1cn[nH]c1-c1ccccn1)c1nn(C2CCNCC2)cc1Cl [BDP5290]
- POS-dependent pseudopod assembly (Primary porcine RPE): did not inhibit
- POS centring at pseudopods/cups ([1]; POS for 30 minutes): un-centred POS
- efficiency of POS binding to RPE cells ([1]; POS for 30 minutes): unaltered
- pMLC activity/staining at pseudopods/cups ([1]; POS for 30 minutes): lack pMLC activity
- MLC phosphorylation after blebbistatin washout ([1]; washout of blebbistatin in the presence of the MRCK inhibitor): inhibition of MLC phosphorylation
- phagocytosis of GOLD-labelled POS (transmission electron microscopy) ([2]; GOLD-labelled POS, TEM): inhibition of phagocytosis
- ability of RPE cells to internalize POS (confocal z-sections) ([2]; POS-FITC 1 h followed by 2 h chase): strongly inhibited

B1: Gas-6: growth arrest-specific 6, soluble protein which links MerTK to POS (protein, UniProt Q14393 31-678, looked up)
Growth arrest-specific …: ALLPAREATQFLRPRQRRAFQVFEEAKQGHLERECVEELCSREEAREVFENDPETDYFYPRYLDCINKYGSPYTKNSGFATCVQNLPDQCTPNPCDRKGTQACQDLMGNFFCLCKAGWGGRLCDKDVNECSQENGGCLQICHNKPGSFHCSCHSGFELSSDGRTCQDIDECADSEACGEARCKNLPGSYSCLCDEGFAYSSQEKACRDVDECLQGRCEQVCVNSPGSYTCHCDGRGGLKLSQDMDTCEDILPCVPFSVAKSVKSLYLGRMFSGTPVIRLRFKRLQPTRLVAEFDFRTFDPEGILLFAGGHQDSTWIVLALRAGRLELQLRYNGVGRVTSSGPVINHGMWQTISVEELARNLVIKVNRDAVMKIAVAGDLFQPERGLYHLNLTVGGIPFHEKDLVQPINPRLDGCMRSWNWLNGEDTTIQETVKVNTRMQCFSVTERGSFYPGSGFAFYSLDYMRTPLDVGTESTWEVEVVAHIRPAADTGVLFALWAPDLRAVPLSVALVDYHSTKKLKKQLVVLAVEHTALALMEIKVCDGQEHVVTVSLRDGEATLEVDGTRGQSEVSAAQLQERLAVLERHLRSPVLTFAGGLPDVPVTSAPVTAFYRGCMTLEVNRRLLDLDEAAYKHSDITAHSCPPVEPAAA
- POS-dependent pseudopod assembly (Primary porcine RPE): sharp increase
